Test results reported in PubChem BioAssay AID2060883 (Molecular Pharmacology Branch, DTP, NCI, 2025).
Values joined by “and” are separate entries in the source; they are usually repeats but may differ in a detail not shown here. Identical values can stand only once.

Test system: 843782-103-R-J1-PDC complex spheroid viability
Assay: Anticancer human tumor 843782-103-R-J1-PDC patient-derived lung adenocarcinoma cell line growth inhibition [RAS]
Details: for viability, T/C: stronger effect = lower value
In short: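 Tumour cells grown as complex spheroids with HUVEC endothelial cells and mesenchymal stem cells, treated with RAS pathway inhibitor combinations. Each agent spans half-log steps from near clinical Cmax, or 10 microM where Cmax is unknown.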
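Also: viability read after seven days of compound exposure.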

For `CC(C)n1nc(-c2ccc3oc(N)nc3c2)c2c(N)ncnc21`, the viability, T/C (compound 0.000316 µM) was 108% [middle of 4 runs], the viability, T/C (compound 0.001 µM) was 94% [middle of 4 runs] and the viability, T/C (compound 0.00316 µM) was 91.6% [middle of 4 runs]. The viability, T/C (compound 0.01 µM) was 72.3% [middle of 4 runs], the viability, T/C (compound 0.0316 µM) was 48.1% [middle of 4 runs] and the viability, T/C (compound 0.1 µM) was 28.8% [middle of 4 runs]. For the same compound, the IC50 (curve of compound) was 31.2 nM [middle of 4 runs].
For `Nc1ccn(C2OC(CO)C(O)C2(F)F)c(=O)n1` (stereo unspecified) + C#Cc1c(F)ccc2cc(O)cc(-c3ncc4c(N5CC6CCC(C5)N6)nc(OCC56CCCN5CC(F)C6)nc4c3F)c12, the IC50 (curve of first compound, second compound 0.0316 µM) was 29.3 nM, the IC50 (curve of first compound, second compound 0.1 µM) was 39.3 nM and the IC50 (curve of first compound, second compound 0.316 µM) was 42.6 nM. The IC50 (curve of first compound, second compound 1 µM) was 32.6 nM, the IC50 (curve of first compound, second compound 3.16 µM) was 21.8 nM and the IC50 (curve of first compound, second compound 10 µM) was 14.3 nM. For the same compound, the viability, T/C (second compound 0.0316 µM, first compound 0.00316 µM) was 101%, the viability, T/C (second compound 0.0316 µM, first compound 0.01 µM) was 101% and the viability, T/C (second compound 0.0316 µM, first compound 0.0316 µM) was 46.1%. For the same compound, the viability, T/C (second compound 0.0316 µM, first compound 0.1 µM) was 8.18%, the viability, T/C (second compound 0.0316 µM, first compound 0.316 µM) was 2.69% and the viability, T/C (second compound 0.0316 µM, first compound 1 µM) was 1.88%. The viability, T/C (second compound 0.1 µM, first compound 0.00316 µM) was 99.5%, the viability, T/C (second compound 0.1 µM, first compound 0.01 µM) was 106% and the viability, T/C (second compound 0.1 µM, first compound 0.0316 µM) was 59.7%. For the same compound, the viability, T/C (second compound 0.1 µM, first compound 0.1 µM) was 8.24%, the viability, T/C (second compound 0.1 µM, first compound 0.316 µM) was 1.77% and the viability, T/C (second compound 0.1 µM, first compound 1 µM) was 1.7%. The viability, T/C (second compound 0.316 µM, first compound 0.00316 µM) was 107%, the viability, T/C (second compound 0.316 µM, first compound 0.01 µM) was 103% and the viability, T/C (second compound 0.316 µM, first compound 0.0316 µM) was 65.4%. For the same compound, the viability, T/C (second compound 0.316 µM, first compound 0.1 µM) was 5.81%, the viability, T/C (second compound 0.316 µM, first compound 0.316 µM) was 2.1% and the viability, T/C (second compound 0.316 µM, first compound 1 µM) was 2.74%. For the same compound, the viability, T/C (second compound 1 µM, first compound 0.00316 µM) was 110%, the viability, T/C (second compound 1 µM, first compound 0.01 µM) was 90.7% and the viability, T/C (second compound 1 µM, first compound 0.0316 µM) was 54.1%. For the same compound, the viability, T/C (second compound 1 µM, first compound 0.1 µM) was 9.25%, the viability, T/C (second compound 1 µM, first compound 0.316 µM) was 2.99% and the viability, T/C (second compound 1 µM, first compound 1 µM) was 2.29%. For the same compound, the viability, T/C (second compound 3.16 µM, first compound 0.00316 µM) was 93%, the viability, T/C (second compound 3.16 µM, first compound 0.01 µM) was 73.8% and the viability, T/C (second compound 3.16 µM, first compound 0.0316 µM) was 40%. The viability, T/C (second compound 3.16 µM, first compound 0.1 µM) was 7.44%, the viability, T/C (second compound 3.16 µM, first compound 0.316 µM) was 2.53% and the viability, T/C (second compound 3.16 µM, first compound 1 µM) was 1.91%. It also gave a viability, T/C (second compound 10 µM, first compound 0.00316 µM) of 64.6%, a viability, T/C (second compound 10 µM, first compound 0.01 µM) of 59.5% and a viability, T/C (second compound 10 µM, first compound 0.0316 µM) of 30.3%. It also gave a viability, T/C (second compound 10 µM, first compound 0.1 µM) of 9.79%, a viability, T/C (second compound 10 µM, first compound 0.316 µM) of 3.81% and a viability, T/C (second compound 10 µM, first compound 1 µM) of 3%.
In the case of `CCN1CCN(Cc2ccc(Nc3ncc(F)c(-c4cc(F)c5nc(C)n(C(C)C)c5c4)n3)nc2)CC1`, the viability, T/C (compound 0.00316 µM) is reported as 105% [middle of 4 runs], the viability, T/C (compound 0.01 µM) is reported as 97.8% [middle of 4 runs] and the viability, T/C (compound 0.0316 µM) is reported as 99.3% [middle of 4 runs]. The viability, T/C (compound 0.1 µM) was 102% (2×) and 90.9% and 101%, the viability, T/C (compound 0.316 µM) was 95.1% [middle of 4 runs] and the viability, T/C (compound 1 µM) was 70% [middle of 4 runs]. For the same compound, the IC50 (curve of compound) was > 1000 nM and 906 nM.
